EP2435064B1, “USE OF HAT INHIBITORS AND TMPRSS2 INHIBITORS AS MEDICAMENTS” (Philipps-Universität Marburg, priority 2009, dated 2010)

How the values were obtained:
HAT = biological target: T1, HAT (Homo sapiens, UniProt O60235); assay: Enzyme kinetic determination of inhibition of HAT (Ki, Dixon method, fluorogenic substrate d-Cyclohexylalanin-Pro-Arg-7-Aminomethylcoumarin); type: biochemical; conditions: HAT (R&D Systems), Tris pH 9.5, room temperature
T1 construct: purchased R&D Systems
T1 sequence (O60235 1-418): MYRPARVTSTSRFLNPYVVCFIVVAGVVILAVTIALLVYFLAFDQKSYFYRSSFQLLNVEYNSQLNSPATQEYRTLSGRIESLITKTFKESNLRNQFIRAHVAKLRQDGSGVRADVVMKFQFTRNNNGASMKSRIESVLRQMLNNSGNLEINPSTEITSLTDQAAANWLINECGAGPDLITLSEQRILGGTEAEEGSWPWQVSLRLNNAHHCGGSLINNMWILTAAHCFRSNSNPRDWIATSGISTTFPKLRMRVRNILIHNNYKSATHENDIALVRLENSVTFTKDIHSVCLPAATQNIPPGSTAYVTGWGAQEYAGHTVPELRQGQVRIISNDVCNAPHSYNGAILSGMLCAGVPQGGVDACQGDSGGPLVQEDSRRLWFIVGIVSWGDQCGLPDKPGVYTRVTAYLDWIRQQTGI
Excerpt: (§1) Die Hemmwirkung der Inhibitoren für HAT (R&D Systems) und TMPRSS2 (katalytische Domäne exprimiert in E. coli) wurden unter Verwendung chromogener Substrate ermittelt. Für HAT wurde d-Cyclohexylalanin-Pro-Arg-7-Aminomethylcoumarin und für TMPRSS2 d-Cyclohexylalanin-Gly-Arg-p-Nitroanilin als Substrat verwendet. Die Bestimmung wurde mit einem Fluoreszenz-Plattenreader Safire^2 der Firma Tecan (λEx = 380 nm, λEm = 460 nm) für HAT und mit einem UV/Vis Plattenreader iEMS Reader MF 1401 der Firma LABSYSTEMS für TMPRSS2 bei 405 nm durchgeführt. Die Messung erfolgte in Tris-Puffer (50 mM Tris pH 9.5, 0,05% Brij 58 und 1 mg/ml bovines serum Albumin für HAT und 50 mM Tris pH 8.0, 0,154 M NaCl für TMPRSS2) auf Mikrotiter Platten bei Raumtemperatur. Die Inhibitorlösungen geeigneter Konzentration wurden in DMSO hergestellt. Im Messansatz wurden zu 2 µl Inhibitorlösung unterschiedlicher Konzentration jeweils 158 µl Puffer und 20 µl Substratlösung geben, und danach die Reaktion durch Zugabe von 20 µl Enzymlösung gestartet. Jeder Inhibitor wurde mit drei verschiedenen Substratkonzentrationen vermessen (50 µM, 100 µM, 200 µM für HAT und 45 µM, 90 µM und 181 µM für TMPRSS2). Die Inhibitorkonzentration wurde mindestens um den Bereich einer Größenordnung variiert und jeweils die steady-state Geschwindigkeit bestimmt. Die Berechnung der Ki-Werte erfolgte mit Hilfe eines Computerprogramms nach der Methode von Dixon.

TMPRSS2 = biological target: T2, TMPRSS2 (Homo sapiens, UniProt O15393); assay: Enzyme kinetic determination of inhibition of TMPRSS2 (Ki, Dixon method, chromogenic substrate d-Cyclohexylalanin-Gly-Arg-p-Nitroanilin); type: biochemical; conditions: TMPRSS2 catalytic domain expressed in E. coli, Tris pH 8.0, room temperature
T2 construct: TMPRSS2 (katalytische Domäne exprimiert in E. coli); made in house; host or cells: E. coli
T2 sequence (O15393 256-492 limits assumed): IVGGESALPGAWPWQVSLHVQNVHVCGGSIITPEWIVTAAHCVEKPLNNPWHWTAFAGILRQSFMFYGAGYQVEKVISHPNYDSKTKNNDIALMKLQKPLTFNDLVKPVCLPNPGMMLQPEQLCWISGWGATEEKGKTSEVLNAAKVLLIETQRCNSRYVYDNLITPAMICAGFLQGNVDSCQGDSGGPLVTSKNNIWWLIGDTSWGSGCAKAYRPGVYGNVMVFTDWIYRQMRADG
Excerpt: as §1

[1] = test system: Influenzavirus-Isolat A/Memphis/14/96 (H1N1); type: cell-based; conditions: Calu-3-Zellen (endogenous TMPRSS2), 24 h infection
HAT-Flag = biological target: T3, HAT-Flag (Homo sapiens, UniProt O60235); assay: Inhibition of affinity-purified HAT-Flag: cleavage of the substrate Boc-Leu-Gly-Arg-AMC; type: biochemical; conditions: 25 µM Boc-Leu-Gly-Arg-AMC, 2 h, 37° C, pH 7,4
T3 construct: made in house; host or cells: MDCK-HAT cells (MDCK stably transfected with pcEFTet-On/NEO and pTRE2pur-HAT-FLAG, doxycycline-inducible); isolated with the FLAG Tagged Protein Immunoprecipitation Kit
T3 sequence (O60235 1-418): T1 sequence (O60235 1-418)
Excerpt: Die in MDCK-HAT-Zellen exprimierte Protease HAT besitzt zusätzlich ein C-terminales Flag-Epitop, welches die Affinitätsreinigung der Protease mit Hilfe von anti-FlagM2-Agarose (Sigma-Aldrich) ermöglicht. HAT-Flag liegt nach der Immunpräzipitation als aktive Protease vor. Die enzymatische Aktivität kann mit Hilfe des Fluoreszenzsubstrats Boc-Leu-Gly-Arg-AMC bestimmt werden.
Für Inhibitionsstudien wurde HAT-Flag zunächst mit Hilfe des FLAG®Tagged Protein Immunoprecipitation Kits aus MDCK-HAT-Zellen isoliert. Anschließend wurde die isolierte Protease mit 25 µM Boc-Leu-Gly-Arg-AMC in 50 mM Tris/HCl pH 7,4 in An- oder Abwesenheit der Inhibitoren (Endkonzentrationen 0,1 -10 µM) für 2 h bei 37° C inkubiert. Die Umsetzung des Substrates wurde mit Hilfe eines Fluoreszenz-Spektralphotomers bei 350 nm (Extinktion) sowie 460 nm (Emission) bestimmt. Als Kontrolle diente die Bestimmung der Proteaseaktivität in Abwesenheit eines Inhibitors (entspricht 0% Hemmung). Tabelle 2: Hemmwirkung synthetischer Serinproteasehemmstoffe auf die HAT-katalysierte Spaltung des Substrats Boc-Leu-Gly-Arg-AMC.

SMILES | Ki (HAT) [nM] | also measured
N=C(N)NCCCC[C@@H](NS(=O)(=O)Cc1ccccc1)C(=O)N1CCC[C@H]1C(=O)NCc1ccc(C(=N)N)cc1 [Inhibitor 10] | 13 | –
N=C(N)c1ccc(CNC(=O)[C@@H]2CCCN2C(=O)C(CCc2ccccn2)NS(=O)(=O)Cc2ccccc2)cc1 (stereo partly shown) [Inhibitor 11] | 32 | –
N=C(N)c1ccc(CNC(=O)[C@@H]2CCCN2C(=O)[C@@H](CCCCNC(=O)OCc2ccccc2)NS(=O)(=O)Cc2ccccc2)cc1 [Inhibitor 8] | 49 | –
N=C(N)c1ccc(CNC(=O)[C@H](CCCCNC(=O)OCc2ccccc2)NC(=O)[C@@H](CO)NS(=O)(=O)Cc2ccccc2)cc1 [Inhibitor 4] | 48 | –
CCCCCCCCCC(=O)NCCCC[C@H](NC(=O)[C@@H](CC1CCCCC1)NS(=O)(=O)Cc1ccccc1)C(=O)NCc1ccc(C(=N)N)cc1 [Inhibitor 16] | > 20000 | –
CCCCCCCCCC(=O)NCCCC[C@H](NC(=O)[C@@H](CCCNC(=N)N)NS(=O)(=O)Cc1ccccc1)C(=O)NCc1ccc(C(=N)N)cc1 [Inhibitor 14] | 160 | Ki (TMPRSS2): 8 nM
N=C(N)c1ccc(CNC(=O)CNC(=O)[C@@H](CCCN=C(N)N)NS(=O)(=O)Cc2ccccc2)cc1 [Inhibitor 2] | 279 | –
N=C(N)c1ccc(CNC(=O)[C@@H]2CCCN2C(=O)[C@@H](CCc2ccccc2)NS(=O)(=O)Cc2ccccc2)cc1 [Inhibitor 7] | 55 | –
N=C(N)NCCC[C@@H](NS(=O)(=O)Cc1ccccc1)C(=O)N1CCC[C@H]1C(=O)NCc1ccc(C(=N)N)cc1 [Inhibitor 1] | 19 | Reduktion der Virusausbreitung [1]: konzentrationsabhängige Reduktion der Virusausbreitung; Ki (TMPRSS2): 3 nM; Prozent Hemmung (%) (HAT-Flag; Inhibitorkonzentration 0,1 µM): 22,3%; Prozent Hemmung (%) (HAT-Flag; Inhibitorkonzentration 1 µM): 70,7%; Prozent Hemmung (%) (HAT-Flag; Inhibitorkonzentration 10 µM): 93,1%
[H]/N=C(\N)c1ccc(CNC(=O)[C@@H]2CCCN2C(=O)[C@@H](Cc2ccccc2)NS(=O)(=O)Cc2ccccc2)cc1 [Inhibitor 6] | 66 | –
N=C(N)c1ccc(CNC(=O)CNC(=O)[C@@H](CO)NS(=O)(=O)Cc2ccccc2)cc1 [Inhibitor 15] | 1840 | –
N=C(N)c1ccc(CNC(=O)[C@H](CCCCNC(=O)OCc2ccccc2)NC(=O)[C@@H](CC2CCCCC2)NS(=O)(=O)Cc2ccccc2)cc1 [Inhibitor 17] | 488 | Ki (TMPRSS2): 84 nM
N#Cc1ccc(C[C@@H](NS(=O)(=O)Cc2ccccc2)C(=O)N2CCC[C@H]2C(=O)NCc2ccc(C(=N)N)cc2)cc1 [Inhibitor 12] | 210 | –
N=C(N)c1ccc(CNC(=O)[C@H](CO)NC(=O)[C@@H](CO)NS(=O)(=O)Cc2ccccc2)cc1 [Inhibitor 3] | 78 | Reduktion der Virusausbreitung [1]: konzentrationsabhängige Reduktion der Virusausbreitung; Prozent Hemmung (%) (HAT-Flag; Inhibitorkonzentration 0,1 µM): 29,5%; Prozent Hemmung (%) (HAT-Flag; Inhibitorkonzentration 1 µM): 47,1%; Prozent Hemmung (%) (HAT-Flag; Inhibitorkonzentration 10 µM): 80,3%
N=C(N)c1ccc(CNC(=O)[C@@H]2CCCN2C(=O)[C@@H](CCCCN)NS(=O)(=O)Cc2ccccc2)cc1 [Inhibitor 9] | 30 | –
N=C(N)c1ccc(CNC(=O)[C@@H]2CCCN2C(=O)[C@@H](CC2CCCCC2)NS(=O)(=O)Cc2ccccc2)cc1 [Inhibitor 5] | 77 | Ki (TMPRSS2): 81 nM; Prozent Hemmung (%) (HAT-Flag; Inhibitorkonzentration 0,1 µM): 27%; Prozent Hemmung (%) (HAT-Flag; Inhibitorkonzentration 1 µM): 47,4%; Prozent Hemmung (%) (HAT-Flag; Inhibitorkonzentration 10 µM): 51,5%
